Among the data in EP3502109A1, “TRIAZOLE-PHENYL-THIAZOLE HETEROCYCLES AS INNOVATIVE INHIBITORS OF TRYPANOTHIONE REDUCTASE AND THEIR USE AS LEISHMANICIDES” (Consejo Superior De Investigaciones Científicas, priority 2017, dated 2019) are IC50 and EC50 values, retold here.

Where a name gives a salt, the structure may show the parent alone. Read-outs that look alike come from different tables or passages of the source. A value given as a limit tells only on which side of the number the result lay.

Assay [1] has as its target recombinant Li-TryR (Leishmania infantum, UniProt A4HSF7). The experiment in a line: Li-TryR oxidoreductase activity assay. The format is biochemical. The protocol:
Oxidoreductase activity was determined according to the method described by Hamilton et al. (Biochem. J., 2003, 369, 529-537). Briefly, reactions were carried out at 26 °C (250 µL) of HEPES pH 8.0 (40 mM) buffer containing EDTA (1 mM), NADPH (150 µM), NADP+ (30 µM), DTNB (25 µM), T[S]2 (1 µM), glicerol (0.02%), DMSO (1.5%) and recombinant Li-TryR (7 nM). […] Enzyme activity was monitored by the increase in absorbance at 412 nm for 1 h at 26 °C in a VERSAmax microplate reader (Molecular Devices, California, USA). All the assays were conducted in triplicate in at least three independent experiments. Data were analyzed using a non-linear regression model with the Grafit6 software (Erithacus, Horley, Surrey, UK).

The target of assay [2] is Li-TryR dimeric form (Leishmania infantum, UniProt A4HSF7). The experiment in a line: Dimer quantitation assay (ELISA), Li-TryR monomer displacement. Type of assay: binding. The protocol:
The stability of the Li-TryR dimeric form in the presence of the compounds was evaluated using an Enzyme-Linked ImmunoSorbent Assay (ELISA). Briefly a dual (HIS/FLAG) tagged Li-TryR (400 nM) was incubated in a dimerization buffer (200 µL 300 mM NaCl, 50 mM Tris pH 8.0) for 16 h at 37 °C with agitation and in a humid atmosphere in the presence of different peptide concentration (10 to 90 µM) in 1.5ml tubes. Next, the tubes were centrifuged at 30000 rcf and supernatants were disposed in anti-flag coated 96 well plates and incubated 30 min, at 37°C with gentle shaking. Then the plates were washed ten times with TTBS (Tween 0.1%, 2 mM Tris, 138 mM NaCl 138 pH 7.6) and incubated with diluted monoclonal α-HIS HRP conjugated antibody (200 µL, Abcam, Cambridge, UK) in BSA (5%) in TTBS for 1 h at room temperature. The plates were washed once again as previously described and 1,2-phenylenediamine dihydrochloride (OPD) substrate (100 µL, Dako, Glostrup, Denmark) prepared according to manufacturer's instructions was added. The enzymatic reaction was stopped after 10 min with H2SO4 (100 µL, 0.5 M) and the absorbances were measured at 490 nm in a VERSAmax microplate reader (Molecular Devices, California, USA). All the assays were conducted in triplicate in at least three independent experiments. Data were analyzed using a non-linear regression model with the Grafit6 software (Erithacus, Horley, Surrey, UK). Table 1. IC50 ± SEM values for target compounds of formula I-A and I-B in the oxidoreductase activity assays and in the Li-TryR monomer displacement
In general terms: In an ELISA, binding on a coated surface is turned into a signal by an enzyme label.

For assay [3], the system named is L. infantum promastigotes. The experiment in a line: Leishmanicidal activity on promastigotes (PI exclusion, flow cytometry). The format is cell-based. The settings on record: Leishmania infantum, 24 h. The protocol:
L. infantum promastigotes (MCAN/ES/ 89/IPZ229/1/89) were grown in RPMI-1640 medium (Sigma-Aldrich, St. Louis, MO, USA) supplemented with 10% heat-inactivated fetal calf serum (FCS), antibiotics, and 25 mm HEPES (pH 7.2) at 26 °C.
(§1) Drug treatment of amastigotes was performed during the logarithmic growth phase at a concentration of 1×10^6 parasites/mL at 37 °C for 24 h. Drug treatment of promastigotes was performed during the logarithmic growth phase at a concentration of 2×10^6 parasites/mL at 26 °C for 24 h. The percentage of living cells was evaluated by flow cytometry by the propidium iodide (PI) exclusion method.^17 Drug concentrations ranged from 0.2 µM to 25 µM.
On the technique in general: In flow cytometry, cells or beads pass a laser one at a time.

The subject of assay [4] is L. infantum axenic amastigotes. The experiment in a line: Leishmanicidal activity on axenic amastigotes (PI exclusion, flow cytometry). The format is cell-based. The note with it: Leishmania infantum, 24 h. The protocol: L. infantum axenic amastigotes were grown in M199 (Invitrogen, Leiden, The Netherlands) medium supplemented with 10% heat inactivated FCS, 1 g/L β-alanine, 100 mg/L L-asparagine, 200 mg/L sacarose, 50 mg/L sodium pyruvate, 320 mg/L malic acid, 40 mg/L fumaric acid, 70 mg/L succinic acid, 200 mg/L α-ketoglutaric acid, 300 mg/L citric acid, 1.1 g/L sodium bicarbonate, 5 g/L MES, 0.4 mg/L hemin, 10 mg/L gentamicine pH 5.4 at 37 °C. THP-1 cells were grown in RPMI-1640 medium (Gibco, Leiden, The Netherlands) supplemented with 10% heat inactivated FCS, antibiotics, 1 mM HEPES, 2 mM glutamine and 1 mM sodium pyruvate, pH 7.2 at 37 °C and 5% CO2.
as §1

The subject of assay [5] is macrophage-differentiated THP-1 monocytes. The experiment in a line: Cytotoxicity assay, macrophage-differentiated THP-1 (crystal violet). The format is cell-based. The settings on record: Homo sapiens, THP-1, 24 h; read-out: EC50 (µM) THP-1 dif. The protocol: (§2) Human THP-1 monocytic cells were seeded at 1.2 x 10^5 cells/ml in 24-multidish plates (Nunc, Roskilde, Denmark) and differentiated to macrophages for 24 h in 1 ml of RPMI 1640 medium containing 10 ng/ml of phorbol 12-myristate 13-acetate (PMA) (Sigma-Aldrich, St. Louis, MO). Human HepG2 cells were seeded at 8 x 10^5 cells/ml in 24-multidish plates (Nunc, Roskilde, Denmark). After 24 h of drug treatment, both cell lines were washed with PBS and stained with violet crystal solution (0.2% in 2% ethanol) in for 10 min. at room temperature. After dye removal, cells were washed twice with water. Once dried, the wells were treated with 1% SDS for 30 min and the absorbance at 570nm was monitored in a plate reader. Table 2. EC50± SEM values for the compounds of formula I-A and I-B on L. infantum promastigotes, extracellular and intracellular amastigotes and cytotoxic activity in macrophage-differentiated THP-1 monocytes and HepG2 cell lines

The subject of assay [6] is HepG2 cells. The experiment in a line: Cytotoxicity assay, HepG2 (crystal violet). The format is cell-based. The note with it: Homo sapiens, HepG2, 24 h. The protocol:
as §2

recombinant Li-TryR, sequence (A4HSF7 entry or part of it): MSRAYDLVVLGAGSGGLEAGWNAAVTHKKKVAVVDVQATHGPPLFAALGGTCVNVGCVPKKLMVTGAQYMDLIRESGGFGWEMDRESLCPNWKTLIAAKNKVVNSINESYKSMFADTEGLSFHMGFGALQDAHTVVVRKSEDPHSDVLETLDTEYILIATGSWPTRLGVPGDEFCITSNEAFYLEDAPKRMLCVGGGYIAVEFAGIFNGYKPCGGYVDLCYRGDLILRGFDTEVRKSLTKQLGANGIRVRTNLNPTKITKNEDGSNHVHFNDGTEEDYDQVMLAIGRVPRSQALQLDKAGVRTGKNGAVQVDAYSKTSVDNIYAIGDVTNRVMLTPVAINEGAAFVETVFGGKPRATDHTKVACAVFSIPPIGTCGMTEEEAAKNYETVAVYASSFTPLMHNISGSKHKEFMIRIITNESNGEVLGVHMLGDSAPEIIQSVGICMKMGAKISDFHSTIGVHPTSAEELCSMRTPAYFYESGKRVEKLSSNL
Li-TryR dimeric form, sequence (A4HSF7 entry or part of it): as above

Take `C[n+]1nn(-c2ccc(-c3nc(CCc4ccccc4)cs3)c(OCCN3CCNC3=O)c2)cc1CCCCN` [Compound 10b, 4-(4-Ammoniobutyl)-3-methyl-1-(3-(2-(2-oxoimidazolidin-1-yl)ethoxy)-4-(4-phenethylthiazol-2-yl)phenyl)-1H-1,2,3-triazol-3-ium 2,2,2-trifluoroacetate trifluoromethanesulfonate]: the IC50 in assay [1] (read-out: IC50 act) was 12.9 ± 0.98 µM; in assay [2] (read-out: IC50 dim) it was greater than 75 µM.

With `C[n+]1nn(-c2ccc(-c3nc(CCc4ccccc4)cs3)c(OCCN3CCNC3=O)c2)cc1CCCN` [Compound 10i, 4-(3-Ammoniopropyl)-3-methyl-1-(3-(2-(2-oxoimidazolidin-1-yl)ethoxy)-4-(4-phenethylthiazol-2-yl)phenyl)-1H-1,2,3-triazol-3-ium 2,2,2-trifluoroacetate trifluoromethanesulfonate], the values for the IC50 in assay [1] (read-out: IC50 act) and in assay [2] (read-out: IC50 dim) were 21.5 ± 2.87 µM and greater than 75 µM, respectively.

As for `CC[n+]1nn(-c2ccc(-c3nc(CCc4ccc(-c5ccccc5)cc4)cs3)c(OCCN3CCNC3=O)c2)cc1CCCCN` [Compound 10f, 1-(4-(4-(2-([1,1'-Biphenyl]-4-yl)ethyl)thiazol-2-yl)-3-(2-(2-oxoimidazolidin-1-yl)ethoxy)phenyl)-4-(4-ammoniobutyl)-3-ethyl-1H-1,2,3-triazol-3-ium 2,2,2-trifluoroacetate trifluoromethanesulfonate], the EC50 in assay [3] stood at 6.03 ± 0.49 µM; in assay [4] it was 15.5 ± 0.7 µM; in assay [5], 19.9 ± 1.1 µM; in assay [6], 69.9 ± 2.97 µM. Besides, the IC50 in assay [1] is 3.88 ± 0.55 µM; in assay [2] it was 87.06 ± 0.1 µM.

In the case of `C[n+]1nn(-c2ccc(-c3nc(-c4ccccc4)c(-c4ccccc4)s3)c(OCCN3CCNC3=O)c2)cc1CCCCN` [Compound 10l, 4-(4-Ammoniobutyl)-1-(4-(4,5-diphenylthiazol-2-yl)-3-(2-(2-oxoimidazolidin-1-yl)ethoxy)phenyl)-3-methyl-1H-1,2,3-triazol-3-ium 2,2,2-trifluoroacetate trifluoromethanesulfonate], the IC50 was 9.31 ± 0.92 µM in assay [1] (read-out: IC50 act) and greater than 75 µM in assay [2] (read-out: IC50 dim).

With `CC(C)Oc1csc(-c2ccc(-n3cc(CCCCN)nn3)cc2OCCN2CCNC2=O)n1` [Compound 8a, 1-(2-(5-(4-(4-Aminobutyl)-1H-1,2,3-triazol-1-yl)-2-(4-isopropoxythiazol-2-yl)phenoxy)ethyl)imidazolidin-2-one 2,2,2 trifluoroacetate], the IC50 is 50.2 ± 2.37 µM in assay [1] (read-out: IC50 act) and greater than 75 µM in assay [2] (read-out: IC50 dim).

Consider `NCCCCc1cn(-c2ccc(-c3nc(-c4ccccc4)cs3)c(OCCN3CCNC3=O)c2)nn1` [Compound 8c, 1-(2-(5-(4-(4-aminobutyl)-1H-1,2,3-triazol-1-yl)-2-(4-phenylthiazol-2-yl)phenoxy)ethyl)imidazolidin-2-one 2,2,2 trifluoroacetate], for which the IC50 was 24 ± 1.69 µM in assay [1] (read-out: IC50 act) and 29 ± 1.51 µM in assay [2] (read-out: IC50 dim).

Turning to `C[n+]1nn(-c2ccc(-c3nc(CCc4ccccc4)cs3)c(OCCC3CCNCC3)c2)cc1CCCCN` [Compound 10k, Mono (4-(2-(5-(4-(4-ammoniobutyl)-3-methyl-1H-1,2,3-triazol-3-ium-1-yl)-2-(4-phenethylthiazol-2-yl)phenoxy)ethyl)piperidin-1-ium) mono(2,2,2-trifluoroacetate) mono(trifluoromethanesulfonate)], the IC50 in assay [1] (read-out: IC50 act) is 3.35 ± 0.3 µM; in assay [2] (read-out: IC50 dim), greater than 75 µM.

For `NCCCCc1cn(-c2ccc(-c3nc(CCc4ccccc4)cs3)c(OCCC3CCNCC3)c2)nn1` [Compound 8l, 4-(1-(4-(4-phenethylthiazol-2-yl)-3-(2-(piperidin-4-yl)ethoxy)phenyl)-1H-1,2,3-triazol-4-yl)butan-1-amine 2,2,2 trifluoroacetate], the IC50 in assay [1] (read-out: IC50 act) is 5.78 ± 0.89 µM; in assay [2] (read-out: IC50 dim) it was greater than 75 µM.

For `C[n+]1nn(-c2ccc(-c3nc(CCc4ccc(-c5ccccc5)cc4)cs3)c(OCCN3CCNC3=O)c2)cc1CCCN` [Compound 10j, 1-(4-(4-(2-([1,1'-Biphenyl]-4-yl)ethyl)thiazol-2-yl)-3-(2-(2-oxoimidazolidin-1-yl)ethoxy)phenyl)-4-(3-ammoniopropyl)-3-methyl-1H-1,2,3-triazol-3-ium 2,2,2-trifluoroacetate trifluoromethanesulfonate], the IC50 is 6.99 ± 0.59 µM in assay [1] (read-out: IC50 act) and 30.2 ± 3.47 µM in assay [2] (read-out: IC50 dim).

Consider `C[n+]1nn(-c2ccc(-c3nc(-c4ccccc4)cs3)c(OCCN3CCNC3=O)c2)cc1CCCCN` [Compound 10a, 4-(4-Ammoniobutyl)-3-methyl-1-(3-(2-(2-oxoimidazolidin-1-yl)ethoxy)-4-(4-phenylthiazol-2-yl)phenyl)-1H-1,2,3-triazol-3-ium 2,2,2-trifluoroacetate trifluoromethanesulfonate], for which the IC50 in assay [1] (read-out: IC50 act) is 22.8 ± 0.98 µM; in assay [2] (read-out: IC50 dim), greater than 75 µM.

Regarding `NCCCc1cn(-c2ccc(-c3nc(CCc4ccc(-c5ccccc5)cc4)cs3)c(OCCN3CCNC3=O)c2)nn1` [Compound 8o, 1-(2-(2-(4-(2-([1,1'-Biphenyl]-4-yl)ethyl)thiazol-2-yl)-5-(4-(3-aminopropyl)-1H-1,2,3-triazol-1-yl)phenoxy)ethyl)imidazolidin-2-one 2,2,2 trifluoroacetate], the IC50 in assay [1] (read-out: IC50 act) is 21.8 ± 5.49 µM; in assay [2] (read-out: IC50 dim), 11.1 ± 0.44 µM.

Consider `COc1cc(-n2cc(CCCCN)nn2)ccc1-c1nc(CCc2ccccc2)cs1` [Compound 8m, 4-(1-(3-Methoxy-4-(4-phenethylthiazol-2-yl)phenyl)-1H-1,2,3-triazol-4-yl)butan-1-amine 2,2,2 trifluoroacetate], for which the EC50 in assay [3] stood at 9.56 ± 0.44 µM; in assay [4], 7.1 ± 0.9 µM. For the same compound, the IC50 in assay [1] was 17.5 ± 2.91 µM; in assay [2], 89.2 ± 29.6 µM.

As for `NCCCc1cn(-c2ccc(-c3nc(CCc4ccccc4)cs3)c(OCCN3CCNC3=O)c2)nn1` [Compound 8n, 1-(2-(5-(4-(3-aminopropyl)-1H-1,2,3-triazol-1-yl)-2-(4-phenethylthiazol-2-yl)phenoxy)ethyl)imidazolidin-2-one 2,2,2 trifluoroacetate], the IC50 in assay [1] (read-out: IC50 act) was 41.2 ± 8.48 µM; in assay [2] (read-out: IC50 dim) it was greater than 75 µM.

Turning to `NCCCCc1cn(-c2ccc(-c3nc(-c4ccccc4)c(-c4ccccc4)s3)c(OCCN3CCNC3=O)c2)nn1` [Compound 8p, 1-(2-(5-(4-(4-Aminobutyl)-1H-1,2,3-triazol-1-yl)-2-(4,5-diphenylthiazol-2-yl)phenoxy)ethyl)imidazolidin-2-one 2,2,2 trifluoroacetate], the IC50 in assay [1] (read-out: IC50 act) worked out at 6.07 ± 1.01 µM; in assay [2] (read-out: IC50 dim), 4.15 ± 1.92 µM.

As usually defined, the IC50 is the midpoint of a concentration-inhibition curve. The EC50 is the concentration at which the effect is half-maximal.
